Measurements from ChEMBL document CHEMBL5518172, “Discovery of hydroxamate as a promising scaffold dually inhibiting metallo- and serine-β-lactamases” (Eur J Med Chem, 2024).
Calls of active or inactive are those of the source. The calls are words filed in the database; no cut-off is given here.

Legend:
[1] = target: Metallo-beta-lactamase type 2 (Bacteria) (UniProt C7C422); experiment: Inhibition of recombinant NDM-1 (unknown origin) expressed in Escherichia coli BL21 (DE3) cells using meropenem as substrate at 20 uM by spectrometric analysis relative to control
Bacteria [2] = experiment: Inhibition of recombinant metallo-beta-lactamase IMP-1 (unknown origin) expressed in Escherichia coli BL21 (DE3) cells using cefazolin as substrate at 20 uM by spectrometric analysis relative to control
Bacteria [3] = experiment: Inhibition of recombinant metallo-beta-lactamase L-1 (unknown origin) expressed in Escherichia coli BL21 (DE3) cells using cefazolin as substrate at 20 uM by spectrometric analysis relative to control
[4] = Inhibition of recombinant serine beta lactamase OXA-48 (unknown origin) expressed in Escherichia coli BL21 (DE3) cells using meropenem as substrate by spectrometric analysis; set-up: species or system Bacteria
[5] = target: Metallo-beta-lactamase type 2 (Bacteria) (UniProt C7C422); experiment: Inhibition of recombinant NDM-1 (unknown origin) expressed in Escherichia coli BL21 (DE3) cells assessed as reduction in residual activity incubated for 20 hrs; details: dose 0.3-5 µM
Bacteria [6] = experiment: Inhibition of recombinant metallo-beta-lactamase IMP-1 (unknown origin) expressed in Escherichia coli BL21 (DE3) cells using cefazolin as substrate assessed as reduction in residual activity; details: dose 0.075-20 µM
[7] = target: Metallo-beta-lactamase type 2 (Bacteria) (UniProt C7C422); experiment: Inhibition of recombinant NDM-1 (unknown origin) expressed in Escherichia coli BL21 (DE3) cells assessed as reduction in residual activity at 0.3 to 5 uM; details: dose 0.3-5 µM, time 20.0 hrs, TDE = time-dependent effect
Bacteria [8] = experiment: Inhibition of recombinant serine beta lactamase KPC-2 (unknown origin) expressed in Escherichia coli BL21 (DE3) cells assessed as reduction in residual activity at 0.25 to 5 uM; details: dose 0.25-5 µM, time 360.0 min, TDE = time-dependent effect
Bacteria [9] = experiment: Inhibition of recombinant serine beta lactamase KPC-2 (unknown origin) expressed in Escherichia coli BL21 (DE3) cells assessed as maximal inhibition at 5 uM incubated for 2.5 hrs
Bacteria [10] = experiment: Inhibition of recombinant metallo-beta-lactamase IMP-1 (unknown origin) expressed in Escherichia coli BL21 (DE3) cells using cefazolin as substrate assessed as residual activity at 20 uM relative to control
Bacteria [11] = experiment: Inhibition of recombinant serine beta lactamase KPC-2 (unknown origin) expressed in Escherichia coli BL21 (DE3) cells using cefazolin as substrate assessed as residual activity at 20 uM relative to control
Bacteria [12] = experiment: Irreversible inhibition of recombinant serine beta lactamase OXA-48 (unknown origin) expressed in Escherichia coli BL21 (DE3) cells using cefazolin as substrate assessed as reduction in residual activity at 5 uM preincubated for 6 hrs followed by dialysis and measured after 24 hrs
Bacteria [13] = experiment: Binding affinity to recombinant metallo-beta-lactamase IMP-1 (unknown origin) expressed in Escherichia coli BL21 (DE3) cells assessed as thermal stabilization by measuring change in melting temperature at 50 uM incubated under 25 to 80 degreeC by SYPRO orange dye based thermal shift assay (reference value: 71.9 degreeC)
Escherichia coli [14] = experiment: Synergistic antibacterial activity against Escherichia coli clinical isolate 06 assessed as meropenem MIC at 64 microg/ml measured after 16 hrs by CLSI protocol based broth microdilution method (reference value: 128 microg/ml); assay type: functional; details: dose 64 µg/ml
Escherichia coli [15] = experiment: Synergistic antibacterial activity against Escherichia coli clinical isolate 07 assessed as meropenem MIC at 64 microg/ml measured after 16 hrs by CLSI protocol based broth microdilution method (reference value: 128 microg/ml); assay type: functional; details: dose 64 µg/ml
Escherichia coli [16] = experiment: Synergistic antibacterial activity against Escherichia coli clinical isolate 08 assessed as meropenem MIC at 64 microg/ml measured after 16 hrs by CLSI protocol based broth microdilution method (reference value: 128 microg/ml); assay type: functional; details: dose 64 µg/ml
Escherichia coli [17] = experiment: Synergistic antibacterial activity against Escherichia coli clinical isolate 10 assessed as meropenem MIC at 64 microg/ml measured after 16 hrs by CLSI protocol based broth microdilution method (reference value: 512 microg/ml); assay type: functional; details: dose 64 µg/ml
Escherichia coli [18] = experiment: Synergistic antibacterial activity against Escherichia coli clinical isolate 24 assessed as meropenem MIC at 64 microg/ml measured after 16 hrs by CLSI protocol based broth microdilution method (reference value: 256 microg/ml); assay type: functional; details: dose 64 µg/ml
Escherichia coli [19] = experiment: Synergistic antibacterial activity against Escherichia coli clinical isolate 04 assessed as fold decrease in meropenem MIC at 64 microg/ml measured after 16 hrs by CLSI protocol based broth microdilution method; assay type: functional; details: dose 64 µg/ml
Escherichia coli [20] = experiment: Synergistic antibacterial activity against Escherichia coli clinical isolate 06 assessed as fold decrease in meropenem MIC at 64 microg/ml measured after 16 hrs by CLSI protocol based broth microdilution method; assay type: functional; details: dose 64 µg/ml
Escherichia coli [21] = experiment: Synergistic antibacterial activity against Escherichia coli clinical isolate 10 assessed as fold decrease in meropenem MIC at 64 microg/ml measured after 16 hrs by CLSI protocol based broth microdilution method; assay type: functional; details: dose 64 µg/ml
Escherichia coli [22] = experiment: Synergistic antibacterial activity against Escherichia coli BL21 (DE3) harboring metallo-beta-lactamase IMP-1 assessed as decrease in bacterial colony at 128 microg/ml incubated for 12 hrs in presence of meropenem by imaging analysis; assay type: functional, organism-based; details: dose 128.0 µg/ml
Escherichia coli [23] = experiment: Synergistic antibacterial activity against Escherichia coli BL21 (DE3) harboring serine beta lactamase KPC-2 assessed as decrease in bacterial colony at 128 microg/ml incubated for 12 hrs in presence of meropenem by imaging analysis; assay type: functional, organism-based; details: dose 128.0 µg/ml
Escherichia coli [24] = experiment: Synergistic antibacterial activity against Escherichia coli BL21 (DE3) harboring serine beta lactamase OXA-48 assessed as decrease in bacterial colony at 128 microg/ml incubated for 12 hrs in presence of meropenem by imaging analysis; assay type: functional, organism-based; details: dose 128.0 µg/ml
Escherichia coli [25] = experiment: Synergistic antibacterial activity against Escherichia coli clinical isolate 10 assessed as decrease in bacterial colony at 128 microg/ml incubated for 12 hrs in presence of meropenem by imaging analysis; assay type: functional, organism-based; details: dose 128.0 µg/ml
Escherichia coli [26] = experiment: Antibacterial activity against Escherichia coli BL21 (DE3) harboring metallo-beta-lactamase IMP-1 assessed as inhibition of bacterial growth upto 512 microg/ml by microdilution checkerboard assay; assay type: functional, organism-based; details: dose <= 512.0 µg/ml
Escherichia coli [27] = experiment: Synergistic antibacterial activity against Escherichia coli BL21 (DE3) harboring NDM-1 assessed as reduction in meropenem MIC upto 256 microg/ml in presence of meropenem by microdilution checkerboard assay; assay type: functional, organism-based; details: dose <= 256.0 µg/ml
Escherichia coli [28] = experiment: Synergistic antibacterial activity against Escherichia coli BL21 (DE3) harboring metallo-beta-lactamase IMP-1 assessed as reduction in meropenem MIC upto 256 microg/ml in presence of meropenem by microdilution checkerboard assay; assay type: functional, organism-based; details: dose <= 256.0 µg/ml
Escherichia coli [29] = experiment: Synergistic antibacterial activity against Escherichia coli BL21 (DE3) harboring serine beta lactamase KPC-2 assessed as reduction in meropenem MIC upto 256 microg/ml in presence of meropenem by microdilution checkerboard assay; assay type: functional, organism-based; details: dose <= 256.0 µg/ml
Escherichia coli [30] = experiment: Synergistic antibacterial activity against Escherichia coli harboring NDM-1 infected in Kunming mouse model assessed as reduction in bacterial load in liver at 20 mg/kg, ip co-administered with 10 mg/kg of meropenem; assay type: functional, organism-based
Escherichia coli [31] = experiment: Synergistic antibacterial activity against Escherichia coli harboring NDM-1 infected in Kunming mouse model assessed as reduction in bacterial load in spleen at 20 mg/kg, ip co-administered with 10 mg/kg of meropenem; assay type: functional, organism-based

Metallo-beta-lactamase type 2 (Bacteria), sequence (C7C422 whole entry): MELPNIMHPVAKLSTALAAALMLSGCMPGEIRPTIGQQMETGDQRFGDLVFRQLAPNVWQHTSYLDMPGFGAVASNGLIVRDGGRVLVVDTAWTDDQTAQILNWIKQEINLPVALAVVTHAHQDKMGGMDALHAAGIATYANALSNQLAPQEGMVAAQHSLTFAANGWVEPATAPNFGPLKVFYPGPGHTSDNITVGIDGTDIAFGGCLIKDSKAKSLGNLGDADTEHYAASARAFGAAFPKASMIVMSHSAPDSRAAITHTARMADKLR

SMILES: O=C(CCCc1ccccc1)NOC(=O)OCc1ccccc1
- inhibition [1]: > 90%
- inhibition (Bacteria [2]): > 90%
- inhibition (Bacteria [3]): < 42%
- IC50 [4]: 1010 nM
- inhibition [5]: Dose-Dependent Effect
- inhibition (Bacteria [6]): Dose-Dependent Effect
- inhibition [7]: Tde
- inhibition (Bacteria [8]): Tde
- inhibition (Bacteria [9]): Active
- Activity (Bacteria [10]): < 10%
- Activity (Bacteria [11]): < 10%
- inhibition (Bacteria [12]): Active
- Tm (Bacteria [13]): 74.3 °C
- MIC (Escherichia coli [14]): 64 µg/mL
- MIC (Escherichia coli [15]): 128 µg/mL
- MIC (Escherichia coli [16]): 64 µg/mL
- MIC (Escherichia coli [17]): 64 µg/mL
- MIC (Escherichia coli [18]): 128 µg/mL
- fold change (FC) (Escherichia coli [19]): 2
- fold change (FC) (Escherichia coli [20]): 2
- fold change (FC) (Escherichia coli [21]): 2
- Activity (Escherichia coli [22]): Active
- Activity (Escherichia coli [23]): Active
- Activity (Escherichia coli [24]): Active
- Activity (Escherichia coli [25]): Active
- Activity (Escherichia coli [26]): inactive
- Activity (Escherichia coli [27]): Active
- Activity (Escherichia coli [28]): Active
- Activity (Escherichia coli [29]): Active
- Activity (Escherichia coli [30]): Active
- Activity (Escherichia coli [31]): Active
